One assay has as its target human mGluR1 (Homo sapiens (Human), UniProt Q13255). Kind of assay: mGluR1 antagonism, L-glutamate induced intracellular calcium increase (FLIPR) in CHO cells stably expressing human mGluR1. It is filed as cell-based. The settings on record: L-glutamate induced intracellular calcium, CHO cells expressing human mGluR1, FLIPR. A general note: Calcium flux is commonly read through the fluorescence of an indicator in the cells.

Another assay deals with human mGluR5a receptors (Homo sapiens (Human), UniProt P41594). Description: inhibition of glutamate-induced elevation of intracellular calcium in L(tk-) cells expressing human mGluR5a. To be noted: glutamate-induced intracellular calcium elevation, L(tk-) cells expressing human mGluR5a; read-out: mGluR5 IC50. It is filed as cell-based. Summed up:
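Compounds tested for inhibition of the glutamate-induced rise in intracellular calcium concentration in L(tk-) cells stably expressing human mGluR5a.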

human mGluR5a receptors, sequence (P41594 other isoform, or with tags, fused parts or gaps): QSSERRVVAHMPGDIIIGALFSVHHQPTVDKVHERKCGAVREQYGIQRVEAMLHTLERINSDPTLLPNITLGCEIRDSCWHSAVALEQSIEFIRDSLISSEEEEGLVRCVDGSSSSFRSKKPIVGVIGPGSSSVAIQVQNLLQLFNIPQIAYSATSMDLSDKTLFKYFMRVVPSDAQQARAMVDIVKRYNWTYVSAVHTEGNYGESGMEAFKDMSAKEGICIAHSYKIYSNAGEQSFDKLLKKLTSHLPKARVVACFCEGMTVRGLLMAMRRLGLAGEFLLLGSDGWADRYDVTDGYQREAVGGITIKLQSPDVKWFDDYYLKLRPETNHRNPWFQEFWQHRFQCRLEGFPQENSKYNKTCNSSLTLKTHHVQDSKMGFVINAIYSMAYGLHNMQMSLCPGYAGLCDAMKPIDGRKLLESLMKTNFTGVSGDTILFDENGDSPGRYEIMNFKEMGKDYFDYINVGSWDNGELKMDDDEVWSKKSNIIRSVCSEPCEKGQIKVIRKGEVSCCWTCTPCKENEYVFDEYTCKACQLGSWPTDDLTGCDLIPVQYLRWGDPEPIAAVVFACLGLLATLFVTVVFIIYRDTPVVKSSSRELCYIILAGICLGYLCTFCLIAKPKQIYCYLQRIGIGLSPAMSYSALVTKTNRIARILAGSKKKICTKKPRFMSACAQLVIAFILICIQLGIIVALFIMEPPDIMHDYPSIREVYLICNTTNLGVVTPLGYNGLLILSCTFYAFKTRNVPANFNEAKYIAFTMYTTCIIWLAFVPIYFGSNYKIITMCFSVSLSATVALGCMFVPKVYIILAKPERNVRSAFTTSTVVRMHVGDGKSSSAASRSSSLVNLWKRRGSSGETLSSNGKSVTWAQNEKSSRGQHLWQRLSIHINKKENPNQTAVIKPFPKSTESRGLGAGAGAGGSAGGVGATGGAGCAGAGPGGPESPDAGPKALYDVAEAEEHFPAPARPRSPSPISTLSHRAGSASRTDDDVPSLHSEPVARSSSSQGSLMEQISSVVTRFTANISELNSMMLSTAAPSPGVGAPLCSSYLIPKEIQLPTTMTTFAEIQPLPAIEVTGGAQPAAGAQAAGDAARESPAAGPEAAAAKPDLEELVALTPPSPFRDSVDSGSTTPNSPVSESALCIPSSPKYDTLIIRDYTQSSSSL
human mGluR1, sequence (Q13255 19-1194): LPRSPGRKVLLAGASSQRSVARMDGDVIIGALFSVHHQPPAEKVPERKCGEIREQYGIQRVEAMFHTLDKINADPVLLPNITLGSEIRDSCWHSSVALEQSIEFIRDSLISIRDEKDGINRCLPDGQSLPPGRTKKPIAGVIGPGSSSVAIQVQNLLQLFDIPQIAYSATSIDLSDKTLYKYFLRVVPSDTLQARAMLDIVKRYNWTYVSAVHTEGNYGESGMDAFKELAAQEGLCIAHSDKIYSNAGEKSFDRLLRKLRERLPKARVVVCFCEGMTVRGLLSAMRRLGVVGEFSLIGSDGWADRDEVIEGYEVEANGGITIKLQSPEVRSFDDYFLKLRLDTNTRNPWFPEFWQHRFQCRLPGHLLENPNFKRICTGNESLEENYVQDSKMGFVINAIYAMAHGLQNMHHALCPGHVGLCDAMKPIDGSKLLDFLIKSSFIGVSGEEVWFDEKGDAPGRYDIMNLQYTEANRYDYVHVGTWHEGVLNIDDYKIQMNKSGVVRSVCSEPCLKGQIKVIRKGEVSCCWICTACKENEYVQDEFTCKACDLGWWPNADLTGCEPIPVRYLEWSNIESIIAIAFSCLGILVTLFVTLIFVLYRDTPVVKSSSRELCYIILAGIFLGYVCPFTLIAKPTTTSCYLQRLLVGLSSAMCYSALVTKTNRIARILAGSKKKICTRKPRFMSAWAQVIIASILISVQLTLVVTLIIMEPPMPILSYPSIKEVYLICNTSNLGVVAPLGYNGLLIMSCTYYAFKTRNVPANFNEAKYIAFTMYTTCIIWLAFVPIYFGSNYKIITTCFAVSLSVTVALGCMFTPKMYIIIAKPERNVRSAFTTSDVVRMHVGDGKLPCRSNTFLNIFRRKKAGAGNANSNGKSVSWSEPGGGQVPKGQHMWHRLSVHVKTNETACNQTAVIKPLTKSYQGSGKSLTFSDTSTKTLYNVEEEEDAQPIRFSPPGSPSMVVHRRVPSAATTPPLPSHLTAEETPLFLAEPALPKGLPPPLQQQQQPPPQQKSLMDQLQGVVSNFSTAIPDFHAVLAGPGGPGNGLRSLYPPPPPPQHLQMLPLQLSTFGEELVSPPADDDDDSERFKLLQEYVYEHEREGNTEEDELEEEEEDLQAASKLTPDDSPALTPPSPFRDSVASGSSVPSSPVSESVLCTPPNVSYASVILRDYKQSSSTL

With `O=C1CN=C(n2cnc(C3CC3)c2)C=C2c3cccc(-n4nccn4)c3CCN12` [Example 138, 2-(4-cyclopropyl-1H-imidazol-1-yl)-9-(2H-1,2,3-triazol-2-yl)-7,8-dihydro-[1,4]diazepino[7,1-a]isoquinolin-5(4H)-one], the 50% inhibitory concentration (IC50) on human mGluR1 worked out at 1480 nM; on human mGluR5a receptors, 79 nM.
On the same counts, the results for `O=C1CN=C(n2cnc(C3CC3)c2)C=C2c3cccc(-c4cnc(F)cn4)c3CCN12` [Example 139, 2-(4-cyclopropyl-1H-imidazol-1-yl)-9-(5-fluoropyrazin-2-yl)-7,8-dihydro-[1,4]diazepino[7,1-a]isoquinolin-5(4H)-one] are 1100 nM and 17 nM.
On the same counts, the results for `O=C1CN=C(n2cnc(C3CC3)c2)C=C2c3ccc(F)c(-c4cnc(F)nc4)c3CCN12` [Example 140] are greater than 10000 nM and 93 nM.
In the case of `O=C1CN=C(n2cnc(C3CC3)c2)C=C2c3cccc(-c4cncc(F)n4)c3CCN12` [Example 141, 2-(4-cyclopropyl-1H-imidazol-1-yl)-9-(6-fluoropyrazin-2-yl)-7,8-dihydro-[1,4]diazepino[7,1-a]isoquinolin-5(4H)-one], the 50% inhibitory concentration (IC50) on human mGluR1 was 402 nM; at human mGluR5a receptors it was 26 nM.
On the same counts, the results for `COCc1cn(C2=NCC(=O)N3CCc4c(OC(C)C)cccc4C3=C2)cn1` [Example 142, 9-isopropoxy-2-(4-(methoxymethyl)-1H-imidazol-1-yl)-7,8-dihydro-[1,4]diazepino[7,1-a]isoquinolin-5(4H)-one] are greater than 2000 nM and 273 nM.
On the same counts, the results for `COCc1cn(C2=NCC(=O)N3CCc4c(C5CC5)cccc4C3C2)cn1` (stereo not drawn) [Example 143, 9-cyclopropyl-2-(4-(methoxymethyl)-1H-imidazol-1-yl)-1,7,8,12b-tetrahydro-[1,4]diazepino[7,1-a]isoquinolin-5(4H)-one] are greater than 10000 nM and 282 nM.

Broadly, the IC50 is the concentration needed to halve the response being measured.

For the origin of these results see patent publication US8853203B2, “Diazepinone derivatives” (Novartis AG, priority 2012, dated 2014).
